Like-named read-outs stand apart in the source and are kept apart here.
Columns and labels:
[1] = target: hERG K+ channel (Homo sapiens, UniProt Q12809); assay: whole-cell patch clamp of hERG; format: cell-based
[2] = target: hERG K+ channel (IKr) (Homo sapiens, UniProt Q12809); assay: whole-cell patch clamp of hERG; format: cell-based; conditions: human, HEK293 cells transiently transfected with hERG, pH 7.4
[3] = target: KCNQ1/KCNE1 (IKs) (Homo sapiens, UniProt P51787); assay: whole-cell patch clamp of IKs in KCNQ1/KCNE1-cotransfected HEK293 cells; format: cell-based
KCNQ1/KCNE1 (IKs), sequence (P51787 whole entry): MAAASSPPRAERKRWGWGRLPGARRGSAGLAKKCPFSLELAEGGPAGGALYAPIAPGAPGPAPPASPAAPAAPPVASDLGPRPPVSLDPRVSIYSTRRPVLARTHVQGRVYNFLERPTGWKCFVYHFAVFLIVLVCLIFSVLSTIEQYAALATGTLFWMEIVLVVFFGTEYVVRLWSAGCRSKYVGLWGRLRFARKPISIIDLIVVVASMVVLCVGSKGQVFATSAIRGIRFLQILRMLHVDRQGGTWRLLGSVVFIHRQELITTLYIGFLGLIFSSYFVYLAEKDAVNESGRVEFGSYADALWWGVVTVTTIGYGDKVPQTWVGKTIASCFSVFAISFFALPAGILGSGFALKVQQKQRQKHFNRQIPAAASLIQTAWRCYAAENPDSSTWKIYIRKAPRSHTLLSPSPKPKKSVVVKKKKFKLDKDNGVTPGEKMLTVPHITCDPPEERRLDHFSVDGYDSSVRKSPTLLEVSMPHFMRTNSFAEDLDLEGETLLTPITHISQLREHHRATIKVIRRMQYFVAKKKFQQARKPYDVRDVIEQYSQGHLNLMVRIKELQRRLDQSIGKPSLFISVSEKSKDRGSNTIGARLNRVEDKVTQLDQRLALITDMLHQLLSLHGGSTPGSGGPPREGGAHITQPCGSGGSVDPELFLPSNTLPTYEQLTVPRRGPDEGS

[4] = target: T1, KCNJ2 (IK1) (Homo sapiens, UniProt P63252); assay: whole-cell patch clamp of IK1 in KCNJ2-transfected HEK293 cells; format: cell-based
T1 sequence (P63252 1-427): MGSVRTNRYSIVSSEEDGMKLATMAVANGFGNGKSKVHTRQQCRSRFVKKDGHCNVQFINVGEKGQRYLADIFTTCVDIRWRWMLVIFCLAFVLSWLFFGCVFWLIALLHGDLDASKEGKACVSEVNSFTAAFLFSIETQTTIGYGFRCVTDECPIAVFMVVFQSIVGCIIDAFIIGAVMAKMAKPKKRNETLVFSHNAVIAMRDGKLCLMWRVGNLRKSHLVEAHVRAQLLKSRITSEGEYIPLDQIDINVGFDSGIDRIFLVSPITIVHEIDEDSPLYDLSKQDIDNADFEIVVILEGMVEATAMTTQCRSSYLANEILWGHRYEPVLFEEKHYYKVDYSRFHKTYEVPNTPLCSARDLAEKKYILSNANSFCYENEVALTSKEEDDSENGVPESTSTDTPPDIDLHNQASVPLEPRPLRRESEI

[5] = system: ECG intervals (RR, PR, QRS, QT); conditions: adult outpatient population (n=1,048); cited from earlier work
[6] = system: isolated guinea-pig atria; conditions: spontaneously beating isolated guinea-pig atria; cited from earlier work

hERG K+ channel (IKr), sequence (Q12809 whole entry): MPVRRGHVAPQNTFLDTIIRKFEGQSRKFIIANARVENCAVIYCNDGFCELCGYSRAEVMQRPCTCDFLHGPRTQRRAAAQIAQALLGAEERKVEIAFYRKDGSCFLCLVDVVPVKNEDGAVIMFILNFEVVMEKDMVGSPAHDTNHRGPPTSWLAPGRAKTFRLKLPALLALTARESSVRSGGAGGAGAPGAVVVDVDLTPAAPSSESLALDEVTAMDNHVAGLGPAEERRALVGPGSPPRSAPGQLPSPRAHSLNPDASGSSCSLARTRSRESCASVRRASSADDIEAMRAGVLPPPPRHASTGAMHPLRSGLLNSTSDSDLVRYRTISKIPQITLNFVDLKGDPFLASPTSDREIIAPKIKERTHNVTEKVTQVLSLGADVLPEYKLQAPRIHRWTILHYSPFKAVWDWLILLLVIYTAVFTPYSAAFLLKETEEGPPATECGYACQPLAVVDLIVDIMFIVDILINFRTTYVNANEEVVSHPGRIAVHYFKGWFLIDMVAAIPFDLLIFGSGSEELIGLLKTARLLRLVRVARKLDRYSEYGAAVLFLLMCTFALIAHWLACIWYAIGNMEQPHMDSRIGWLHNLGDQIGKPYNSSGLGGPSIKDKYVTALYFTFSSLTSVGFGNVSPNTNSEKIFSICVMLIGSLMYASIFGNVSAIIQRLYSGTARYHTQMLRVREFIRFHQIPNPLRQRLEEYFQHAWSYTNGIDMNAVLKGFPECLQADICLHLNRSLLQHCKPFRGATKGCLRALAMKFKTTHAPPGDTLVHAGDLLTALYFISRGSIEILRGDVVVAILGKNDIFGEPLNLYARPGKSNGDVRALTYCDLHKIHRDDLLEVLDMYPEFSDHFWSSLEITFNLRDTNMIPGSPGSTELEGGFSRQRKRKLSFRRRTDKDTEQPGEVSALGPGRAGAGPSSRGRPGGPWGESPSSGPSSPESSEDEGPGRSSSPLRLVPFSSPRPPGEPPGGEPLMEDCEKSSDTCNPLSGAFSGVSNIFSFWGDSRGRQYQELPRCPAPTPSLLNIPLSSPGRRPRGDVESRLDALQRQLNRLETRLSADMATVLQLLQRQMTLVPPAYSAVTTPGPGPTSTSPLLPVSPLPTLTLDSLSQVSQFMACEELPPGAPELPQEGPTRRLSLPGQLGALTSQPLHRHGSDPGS
hERG K+ channel, sequence (Q12809 whole entry): as above

IC50 [3]: 12.3 ± 1.3 µM
reduction of IKs amplitude ([3]; 1 µM sertraline, n=4): 1.5±3.8%
reduction of IKs amplitude ([3]; 3 µM sertraline, n=4): 10.3±2.5%
reduction of IKs amplitude ([3]; 10 µM sertraline, n=4): 36.6±3.5%
reduction of IKs amplitude ([3]; 30 µM sertraline, n=4): 84.0±5.6%
Hill coefficient, IKs inhibition ([3]; KCNQ1/KCNE1 HEK293 cells, n=4): 2.5±0.1
IC50 ([3]; human, HEK293 cells transiently cotransfected with KCNQ1/KCNE1, pH 7.4): 15.2 µM
IC50 [4]: 10.5 µM
reduction of IK1 amplitude ([4]; 1 µM sertraline, n=4): 0.7±2.7%
reduction of IK1 amplitude ([4]; 3 µM sertraline, n=4): 9.4±1.1%
reduction of IK1 amplitude ([4]; 10 µM sertraline, n=4): 45.7±3.9%
reduction of IK1 amplitude ([4]; 30 µM sertraline, n=4): 92.5± 1.2%
Hill coefficient, IK1 inhibition ([4]; KCNJ2 HEK293 cells, n=4): 2.1±0.2
SMILES: CN[C@H]1CC[C@@H](c2ccc(Cl)c(Cl)c2)c2ccccc21 [Sertraline]
IC50 [1]: 0.7 µM
Hill coefficient, hERG current inhibition ([1]; HEK293 cells, Hill fit, n=4): 1.3±0.02
inhibition at 1 µM [2]: 7.9 ± 1.9%
inhibition at 3 µM [2]: 24.2 ± 1.9%
inhibition at 10 µM [2]: 60.1 ± 2.7%
inhibition at 30 µM [2]: 86.4 ± 1.4%
effect on RR, PR, QRS, and QT intervals [5]: no significant effect
effect on rate of contractions and contractile force [6]: dose-dependent decrease in the rate contractions and in the contractile force

— publication PMC3484517 (The Korean Journal of Physiology & Pharmacology : Official …, 2012)
